Test [1] deals with T1, CbrR.
T1 construct: gene CJJ81176_0671
To be noted: labelled compound (32P); 10 mM Tris pH 8.0, 5 mM MgCl2, 100 mM NaCl; active-site mutant.
Target sequence in this assay (A0A0H3PJ41 whole entry E334A): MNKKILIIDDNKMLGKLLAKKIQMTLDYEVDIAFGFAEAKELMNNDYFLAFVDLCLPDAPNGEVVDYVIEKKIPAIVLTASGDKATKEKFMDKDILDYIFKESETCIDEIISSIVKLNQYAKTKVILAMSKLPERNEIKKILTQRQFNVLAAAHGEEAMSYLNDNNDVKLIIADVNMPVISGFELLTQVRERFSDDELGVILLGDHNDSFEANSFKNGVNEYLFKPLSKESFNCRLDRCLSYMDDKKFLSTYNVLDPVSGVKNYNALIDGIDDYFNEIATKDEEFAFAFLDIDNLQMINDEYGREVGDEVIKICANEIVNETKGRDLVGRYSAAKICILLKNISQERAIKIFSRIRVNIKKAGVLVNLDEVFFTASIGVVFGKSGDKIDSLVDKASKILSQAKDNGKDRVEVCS

The test system of test [2] is T1, CbrR. The following applies: labelled compound (32P); 10 mM Tris pH 8.0, 5 mM MgCl2, 100 mM NaCl; I-site mutant.
Target sequence in this assay (A0A0H3PJ41 whole entry K323A/G324A/R325A/D326A): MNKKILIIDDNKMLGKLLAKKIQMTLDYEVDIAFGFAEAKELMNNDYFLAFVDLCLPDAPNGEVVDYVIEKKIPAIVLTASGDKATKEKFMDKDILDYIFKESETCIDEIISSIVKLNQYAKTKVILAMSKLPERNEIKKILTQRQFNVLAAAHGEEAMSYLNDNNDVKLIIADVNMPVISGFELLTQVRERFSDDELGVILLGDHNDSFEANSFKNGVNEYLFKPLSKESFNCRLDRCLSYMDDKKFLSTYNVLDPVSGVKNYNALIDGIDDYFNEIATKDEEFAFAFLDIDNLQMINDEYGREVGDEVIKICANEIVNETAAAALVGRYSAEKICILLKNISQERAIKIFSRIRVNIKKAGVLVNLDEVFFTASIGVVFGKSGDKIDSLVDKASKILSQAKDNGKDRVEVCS

As for `Nc1nc2c(ncn2[C@@H]2O[C@H](COP(=O)(O)OP(=O)(O)OP(=O)(O)O)[C@@H](O)[C@H]2O)c(=O)[nH]1` [GTP], the “DRaCALA, nitrocellulose spot” value in test [1] was “did not affect binding of either GTP or c-di-GMP”.
Consider `Nc1nc2c(ncn2[C@@H]2O[C@@H]3COP(=O)(O)O[C@H]4[C@@H](O)[C@H](n5cnc6c(=O)[nH]c(N)nc65)O[C@@H]4COP(=O)(O)O[C@H]3[C@H]2O)c(=O)[nH]1` [c-di-GMP], for which, in test [2], the binding result is reported as “substitution of the I-site in the protein led to the loss of c-di-GMP binding”. Also, the “DRaCALA, nitrocellulose spot” value in test [1] is “did not affect binding of either GTP or c-di-GMP”.
